Patent publication US6521609B1, “Use of CGRP antagonists and CGRP release inhibitors for combating menopausal hot flushes” (Boehringer Ingelheim Pharma KG, priority 1999, dated 2003)

Test system: increased blood flow through the facial skin caused by endogenous CGRP
Assay: Trigeminal ganglion stimulation in marmosets: facial skin blood flow (laser Doppler)
Type: in vivo, marmoset
Details: anaesthetized marmosets, i.v. 5 minutes before trigeminal ganglion stimulation (10 Hz, 2 mA, 2 msec, 30 seconds)
Method: The efficacy of the following test substances was characterised by determining the dose administered i.v. which reduces by 50% the increased blood flow through the skin of the face which has been brought about by endogenous CGRP:
Marmosets of both sexes (300-400 g) are anaesthetized with pentobarbital (initially with 30 mg/kg, i.p., followed by infusion of 6 mg/kg/h, […].). The body temperature is maintained at 37° C. using a heating plate. Pancuronium is administered as a muscle relaxant (initially 1 mg/kg, 0.5 mg after each hour thereafter). The animal's head is secured in a stereotactical apparatus. After the skin on the head has been opened using a lengthwise incision, a small hole is drilled in the skull and a bipolar electrode (Rhodes SNES 100) is lowered into the trigeminal ganglion. […] The petrous bone serves as a guide for placing the electrode (CCX-Digital X-ray apparatus). The position of the electrode in the ganglion is monitored at the end of each experiment. The stimulation parameters are: 10 Hz, 2 mA, 2 msec, for 30 seconds. The blood flow in the micro-vessels of the facial skin is determined by laser Doppler flow measurement using a PeriFlux Laser Doppler System. The animals are exposed to 2 to 3 stimulation periods at intervals of 30 minutes in each case. The first stimulation serves as a reference value for the other stimulations. The test substances are administered i.v. 5 minutes before the 2nd and 3rd stimulation periods.

Compound	50% dose (i.v. dose which reduces by 50% the increased blood flow through the facial skin caused by endogenous CGRP) [mg/kg]
Nc1c(Br)cc(C[C@@H](NC(=O)N2CCC(N3Cc4ccccc4NC3=O)CC2)C(=O)N2CCC(N3CCCCC3)CC2)cc1Br [AM]	0.046
CNS(=O)(=O)Cc1ccc2[nH]cc(CCN(C)C)c2c1 [DA]	0.280
CN(C)CCc1c[nH]c2ccc(C[C@H]3COC(=O)N3)cc12 [DB]	0.035
